US10813981B2, “Saposin B binds the lipofuscin bisretinoid A2E and prevents its enzymatic and photo degradation” (Syracuse University, priority 2017, dated 2020)
Numbering of substitutions follows the chain as printed.

Columns and labels:
SapB [1] = target: T1, SapB (Homo sapiens, UniProt P07602); test: Fluorescence quenching titration of SapB with ligand (double logarithmic Stern-Volmer analysis); format: binding; details: 40 μM SapB, 50 mM phosphate buffer pH 5.5, average of three runs; for Kd: read-out: LogKA of binding by SapB (converted)
T1 construct: made in house; host or cells: E. coli
T1 sequence (P07602 195-273 limits assumed): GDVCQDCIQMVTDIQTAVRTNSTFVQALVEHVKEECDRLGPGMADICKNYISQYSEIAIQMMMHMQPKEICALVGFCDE
Procedure: A2E and SapB were prepared and purified according to literature reports. To determine the A2E/protein binding stoichiometry, a fluorescence titration was carried out by incrementally adding small amounts of A2E to a solution of SapB (FIG. 2). […] A double logarithmic plot of
Fluorescence quenching measurements were performed on a Varian Cary Eclipse fluorimeter equipped with a QNW Peltier temperature controller. The experiments were conducted at 25.00±0.01° C. in 50 mM phosphate buffer, pH 5.50 or 7.40 using 278 nm excitation wavelength for sapB emission spectra at 325 nm (FIG. 2) or 444 nm excitation for A2E emission at 602 nm (FIG. 3) with excitation and emission monochromators bandwidth of 5 nm each. The fluorescence quenching data were analyzed using OriginLab software version 8.
The interaction of SapB (prepared as described above) with a variety of ligands was followed by monitoring the quenching of the fluorescence intensities of the protein's tyrosine residues upon binding (FIG. 12 Panels a-f).
For each ligand tested 40 μM SapB in 50 mM phosphate buffer at pH 5.5 was titrated with ligand and quenching was monitored at the fluorescence maxima at 330 nm. […] All of the fluorescence data were analyzed by a double logarithmic Stern-Volmer plot, shown for all ligands, using the emission maxima to determine binding affinity, presented in Table 3, and using the following equation
Materials and Methods—Saposin B (SapB) was prepared and purified as described above. Briefly, SapB solutions in this study were prepared in 50 mM phosphate buffer, pH 5.5. […] Ligand solutions were prepared in 100% dimethylformamide (DMF) to a concentration of 2 mM, with the exception of hydoxychloroquine (HCQ), which was prepared in 50 mM phosphate buffer, pH 5.5. […] 4.2. Fluorescence Spectroscopy. Fluorescence quenching measurements were performed on a Varian Cary Eclipse fluorimeter equipped with a QNW Peltier temperature controller. The binding experiments were conducted at 25.00±0.01° C. in 50 mM phosphate buffer, pH 5.5, using 278 nm excitation wavelength for SapB emission spectra at 330 nm (FIG. 1a-f) with excitation and emission monochromators bandwidth of 5 nm each. Temperature sensitive binding experiments were performed between 20.00±0.01 and 40.00±0.01° C. using 278 nm excitation wavelength for SapB emission spectra at 331 nm, with excitation and emission monochromators bandwidth of 5 nm each. The fluorescence quenching data were analyzed using OriginLab software version 8.

SapB [2] = target: T1, SapB; test: Temperature dependent fluorescence binding assay, SapB with ATO; details: 25° C.; read-out: KA at 25° C., SapB-ATO
Procedure: Isothermal titration calorimetry has shown that [SapB-ATO]complex formation has a larger enthalpic contribution than [SapB-CQ]complex and [SapB-CoQ10]complex. Thus, the shift in binding affinity between [SapB-ATO]complex and [[…]-ATO]complex binding may be due to a shift in the thermodynamics of binding. In order to test this, temperature dependent fluorescence studies were performed with […] and ATO, as well as with SapB and ATO. Fluorescence titration experiments were carried out at five different temperatures for each of the […]-ATO and SapB-ATO experiments (FIG. 14). At each temperature, protein was prepared in phosphate buffer solution and ATO was then added via titration. The quenching of SapB or […] fluorescence was monitored at 330 nm and the KA was calculated via double logarithmic Stern-Volmer analysis. The best-fit plot of InKeq vs. 1/T, where was used to calculate the standard enthalpy, entropy, and Gibb's Free energy of binding for the formation of [[…]-ATO]complex and Materials and Methods-Saposin B (SapB) was prepared and purified as described above. […] Fluorescence Spectroscopy. Fluorescence quenching measurements were performed on a Varian Cary Eclipse fluorimeter equipped with a QNW Peltier temperature controller. […] The fluorescence quenching data were analyzed using OriginLab software version 8.

SapB mutant E69A = target: T2, SapB mutant E69A (Homo sapiens, UniProt P07602, E263A); test: Fluorescence binding assay (Stern-Volmer and temperature dependent), E69A with ATO; details: 25° C.; read-out: KA at 25° C., E69A-ATO
T2 construct: is a product of the post-translational cleavage of prosaposin, along with SapA, SapC, and SapD
T2 sequence (P07602 195-273 E263A): T1 sequence (P07602 195-273 limits assumed) with E69A
Procedure: The deviation observed for [SapB-ATO]complex from the trend warranted further investigation. In order to examine this deviation, a previously described SapB mutant […] (denoted as […] from here on) was used. Fluorescence studies were performed with […] and ATO as described herein for wild type SapB. […] Isothermal titration calorimetry has shown that [SapB-ATO]complex formation has a larger enthalpic contribution than [SapB-CQ]complex and [SapB-CoQ10]complex. Thus, the shift in binding affinity between [SapB-ATO]complex and [[…]-ATO]complex binding may be due to a shift in the thermodynamics of binding. In order to test this, temperature dependent fluorescence studies were performed with […] and ATO, as well as with SapB and ATO. Fluorescence titration experiments were carried out at five different temperatures for each of the […]-ATO and SapB-ATO experiments (FIG. 14). At each temperature, protein was prepared in phosphate buffer solution and ATO was then added via titration. The quenching of SapB or […] fluorescence was monitored at 330 nm and the KA was calculated via double logarithmic Stern-Volmer analysis. […] Fluorescence Spectroscopy. Fluorescence quenching measurements were performed on a Varian Cary Eclipse fluorimeter equipped with a QNW Peltier temperature controller. […] The fluorescence quenching data were analyzed using OriginLab software version 8.

[3] = target: T3, pre-formed [SapB-Ligand]complex (Homo sapiens, UniProt P07602); test: Competition / order of addition fluorescence binding with pre-formed SapB complexes; details: A2E fluorescence at 602 nm, excitation 444 nm, pH 5.5
T3 construct: is a product of the post-translational cleavage of prosaposin, along with SapA, SapC, and SapD; made in house; host or cells: E. coli
T3 sequence (P07602 195-273 limits assumed): T1 sequence (P07602 195-273 limits assumed)
Procedure: We have reported in an earlier study the binding properties of SapB to CoQ10 (a bone fide substrate). To determine whether it binds to the same binding site on the protein or displaces A2E from SapB, a series of fluorescence titration experiments in the presence and absence of CoQ10 were performed.
An 800 μL, 20 μM SapB to 10 μM CoQ10 complex was made in pH 5.5 50 mM phosphate buffer. The complex was formed at room temperature in a 1 mL glass vial with gentle stirring for 10 minutes. The entire solution was then transferred to a clear fluorescence cuvette. Fluorescence experiments were performed under emission conditions on a Cary Eclipse Fluorescence Spectrophotometer, with an excitation wavelength of 444 nm, emission wavelength range of 500-800 nm, excitation slit width set to 10 nm, and emission slit width set to 10 nm. […] Analysis of A2E binding the SapB-CoQ10 complex was performed by tracking fluorescence intensity at A2E's peak emission wavelength of 602 nm and plotting it against the concentration of A2E added per each injection.
A SapB-ATO complex was formed by adding 20 μL of the experimental stock to 1 mL of the SapB experimental stock for a final volume of 1020 μL in a 1.5 mL Eppendorf tube. […] The entire 1020 μL was then transferred to a clear fluorescence cuvette. […]

Compound | LogKA of binding by SapB (SapB [1]) | Kd (SapB [1]) [µM] | also measured
CC1=C(/C=C/C(C)=C/C=C/C(C)=C/C=C/C=C(C)/C=C/C=C(\C)C=O)C(C)(C)CCC1 [Apocarotenal, apo-carotenal] | 4.618 | – | –
O=C1C(O)=C([C@H]2CC[C@H](c3ccc(Cl)cc3)CC2)C(=O)c2ccccc21 [Atovaquone, atovaquone] | – | 0.0288 | Kd (SapB [2]): 0.112 µM; Kd (SapB mutant E69A): 58.5 µM
CCN(CC)CCCC(C)Nc1ccnc2cc(Cl)ccc12 (stereo not drawn) [Chloroquine, chloroquine] | – | 70.1 | –
CCN(CCO)CCCC(C)Nc1ccnc2cc(Cl)ccc12 (stereo not drawn) [Hydoxychloroquine, hydroxychloroquine] | – | 155 | –
phosphatidyl-choline [Phosphatidylcholine] | 6.075 | – | –
phosphatidylethanolamine | 5.227 | – | –

Second part, led by results:

LogKA of binding by SapB (SapB [1]) | Kd (SapB [1]) [µM] | Compound | also measured
5.103 | – | COC1=C(OC)C(=O)C(C/C=C(\C)CC/C=C(\C)CC/C=C(\C)CCC=C(C)C)=C(C)C1=O [Coenzyme Q4] | –
6.196 | – | COC1=C(OC)C(=O)C(C/C=C(\C)CC/C=C(\C)CC/C=C(\C)CC/C=C(\C)CC/C=C(\C)CC/C=C(\C)CC/C=C(\C)CC/C=C(\C)CCC=C(C)C)=C(C)C1=O [Coenzyme Q9] | –
– | 0.0631 | COC1=C(OC)C(=O)C(C/C=C(\C)CC/C=C(\C)CC/C=C(\C)CC/C=C(\C)CC/C=C(\C)CC/C=C(\C)CC/C=C(\C)CC/C=C(\C)CC/C=C(\C)CCC=C(C)C)=C(C)C1=O [Coenzyme Q10, coenzyme Q10] | A2E binding on titration into SapB pre-complexed with the ligand [3]: identical fluorescence titration pattern
